From patent publication US20250099517A1, “Use of Lactobacillus reuteri Y7 strain for prevention or treatment of ocular diseases” (Taipei Medical University, priority 2023, published 2025)

How the values were obtained:
[1] = body weights of mice during the experiment; assay type: in vivo, C57BL/6 mice; details: LU, lutein 6.15 mg/kg bw oral daily, blue light, mean±S.E.M., in g (unit assumed)
Procedure: In the present invention, six-week-old male C57BL/6 mice were placed in a breeding cage in which the following feeding conditions were kept: temperature, 22±2° C., humidity, 55±5%, and the light-dark cycle of 12-hour light and 12-hour dark. The mice were fed with fodders at the adaptive phase for one week; general solid fodders for test animals were administered to mice of the control group and mice during the adaptive phase. The initial day was defined as Day 0 when the adaptive phase for the mice was over. From the next week, the mice were interfered with samples under test and exposed to blue light. During the experiments, the mice were monitored for weights as well as water intakes and checked for any physiological change. The data for experiments through electroretinography (ERG), fndus photography (FP), fundus fluorescein angiograph (FFA), spectral-domain optical coherence tomography (SD-OCT) and intraocular pressure (IOP) were collected at Day 0, Day 21 and Day 35, as shown in FIG. 1 for the experimental process. The C57BL/6 mice, which weighed between 23 and 25 g, were divided into seven groups randomly. In each group, the six mice induced by blue light successfully were incorporated in experiments. The samples dissolved in deuterium-depleted water (DDW) were fed to mice through oral tubes once a day. The groups were named and introduced as follows: • (1) Solvent not classified group (NC): The mice were fed with 0.2 ml deuterium-depleted water (DDW) through tubes; • (2) Negative control group (Blue light (BL)): The mice were fed with 0.2 ml deuterium-depleted water (DDW) through tubes and exposed to blue light; • (3) Low-dosage Y7 probiotics group […]): The mice were fed with low-dosage Y7 probiotics (probiotic counts of 1.0×10^8 CFU/ml dissolved in 0.2 ml DDW per day) and exposed to blue light; • (4) High-dosage Y7 probiotics group […]): The mice were fed with high-dosage Y7 probiotics (probiotic counts of 1.0×10^9 CFU/ml dissolved in 0.2 ml DDW per day) and exposed to blue light; • (5) Positive control group (lutein (LU)): The mice were fed with lutein and exposed to blue light. The recommended human dosage of lutein is 30 mg. The mouse cage (48×25×20 cm) placed inside a stainless ventilated box was equipped with blue light boards as blue light sources around and above. In the experiment of animals exposed to blue light, six-week-old mice staying in the mouse cage were fed with drinking water as well as fodders and exposed to 400 Lux blue light illumination under the light-dark cycle of 12-hour light and 12-hour dark. The experiment was aimed at causing mice' late dry macular disease induced by chronic light injuries for simulating a human being's macular disease after long-term exposure to short-wavelength blue light from 3C products in daily life. All data written as the form of mean±standard error of the mean (S.E.M.) were used in the statistical analysis through the one-way ANOVA and the Newman-Keuls test; p<0.05 denoted statistical difference. In the experiment, the software for the statistical analysis was Graph pad Prism (v9.2.0). The data such as food intake, water intake, body weight, organ weight and other clinical examination data were analyzed with the one-way ANOVA.

[2] = tested on: MCP-1, IL-18, NLRP3, NF-KB p65, Caspase1 gene expression; experiment: q-PCR of inflammation-related gene expression in eyes; assay type: in vivo, C57BL/6 mice; details: for gene expression of MCP-1 compared with the BL group / gene expression of NF-KB p65 compared with the BL group: p<0.05; for gene expression of Caspase1 / gene expression of IL-18 / gene expression of NLRP3: versus increase in BL group
Procedure: The C57BL/6 mice, which weighed between 23 and 25 g, were divided into seven groups randomly. In each group, the six mice induced by blue light successfully were incorporated in experiments. The samples dissolved in deuterium-depleted water (DDW) were fed to mice through oral tubes once a day. The groups were named and introduced as follows: • (1) Solvent not classified group (NC): The mice were fed with 0.2 ml deuterium-depleted water (DDW) through tubes; • (2) Negative control group (Blue light (BL)): The mice were fed with 0.2 ml deuterium-depleted water (DDW) through tubes and exposed to blue light; • (3) Low-dosage Y7 probiotics group […]): The mice were fed with low-dosage Y7 probiotics (probiotic counts of 1.0×10^8 CFU/ml dissolved in 0.2 ml DDW per day) and exposed to blue light; • (4) High-dosage Y7 probiotics group […]): The mice were fed with high-dosage Y7 probiotics (probiotic counts of 1.0×10^9 CFU/ml dissolved in 0.2 ml DDW per day) and exposed to blue light; • (5) Positive control group (lutein (LU)): The mice were fed with lutein and exposed to blue light. The recommended human dosage of lutein is 30 mg. The mouse cage (48×25×20 cm) placed inside a stainless ventilated box was equipped with blue light boards as blue light sources around and above. In the experiment of animals exposed to blue light, six-week-old mice staying in the mouse cage were fed with drinking water as well as fodders and exposed to 400 Lux blue light illumination under the light-dark cycle of 12-hour light and 12-hour dark. The experiment was aimed at causing mice' late dry macular disease induced by chronic light injuries for simulating a human being's macular disease after long-term exposure to short-wavelength blue light from 3C products in daily life. The eyes of a mouse sacrificed were collected for the following purposes. RNAs extracted with Trizol were reverse-transcribed to cDNAs. Then, the real-time quantitative polymerase chain reaction was enabled to detect gene expressions related to inflammatory hormones and apoptosis such as TNF-α, IL-1B, IL-6, Bax, Bcl-2, Caspase1, Caspase3 and NLRP3 for comparisons with the endogenous level of β-actin, GAPDH or 18S rRNA. [table] The gene expressions related to a mouse's ocular inflammation, for example, MCP-1 (FIG. 8a), IL-18 (FIG. 8b), NLRP3 (FIG. 8c), NF-KB p65 (FIG. 8d), Caspase1 (FIG. 8e), TNF-α (FIG. 8f), IL-6 (FIG. 8g) and IL-1β (FIG. 8h), were analyzed in the experiment. […] In summary, the intervention of Y7 probiotics relieved ocular inflammation attributed to blue light.

Compound | body weights of mice ([1]; Day 0) | body weights of mice ([1]; Day 7) | body weights of mice ([1]; Day 14) | body weights of mice ([1]; Day 21) | body weights of mice ([1]; Day 28) | body weights of mice ([1]; Day 35) | gene expression of MCP-1 compared with the BL group ([2]; Y7H high-dosage group) | gene expression of NF-KB p65 compared with the BL group ([2]; Y7H high-dosage group) | gene expression of Caspase1 ([2]; Y7H high-dosage group) | gene expression of IL-18 ([2]; Y7H high-dosage group) | gene expression of NLRP3 ([2]; Y7H high-dosage group) | gene expression of MCP-1 compared with the BL group ([2]; Y7L low-dosage group) | gene expression of NF-KB p65 compared with the BL group ([2]; Y7L low-dosage group) | gene expression of Caspase1 ([2]; Y7L low-dosage group) | gene expression of IL-18 ([2]; Y7L low-dosage group) | gene expression of NLRP3 ([2]; Y7L low-dosage group)
CC1=C[C@H](O)CC(C)(C)[C@H]1/C=C/C(C)=C/C=C/C(C)=C/C=C/C=C(C)/C=C/C=C(C)/C=C/C1=C(C)C[C@@H](O)CC1(C)C [lutein, reference compound] | 21.25 ± 1.52 | 21.35 ± 1.97 | 22.12 ± 2.09 | 22.12 ± 2.09 | 22.40 ± 1.97 | 22.88 ± 2.86 | – | – | – | – | – | – | – | – | – | –
Lactobacillus reuteri Y7 [Y7 probiotics] | – | – | – | – | – | – | reduced significantly | reduced significantly | decreased | decreased | decreased | reduced significantly | reduced significantly | decreased | decreased | decreased
